Reference: PMC4746591, “Internal (His)6-tagging delivers a fully functional hetero-oligomeric class II chaperonin in high yield” (Scientific Reports, 2016)

T1: thermosome α subunit with a (His)6-tag downstream Lys144 (αK144Ht) (Thermoplasma acidophilum, UniProt P48424 1-545)
T1 construct: thermosome α subunit, Thermoplasma acidophilum, P48424; synthetic gene (Invitrogen) with six histidines inserted downstream of Lys144, in the loop between beta sheet β4 and alpha helix α6; Eight copies stand in the α8/β8 hexadecamer; also called K144-(His)6 α-subunit; (His)6-tagged α subunit; source: E. coli BL21(DE3) Codon Plus-RIL, co-expressed with the β subunit from the construct …
T1 sequence: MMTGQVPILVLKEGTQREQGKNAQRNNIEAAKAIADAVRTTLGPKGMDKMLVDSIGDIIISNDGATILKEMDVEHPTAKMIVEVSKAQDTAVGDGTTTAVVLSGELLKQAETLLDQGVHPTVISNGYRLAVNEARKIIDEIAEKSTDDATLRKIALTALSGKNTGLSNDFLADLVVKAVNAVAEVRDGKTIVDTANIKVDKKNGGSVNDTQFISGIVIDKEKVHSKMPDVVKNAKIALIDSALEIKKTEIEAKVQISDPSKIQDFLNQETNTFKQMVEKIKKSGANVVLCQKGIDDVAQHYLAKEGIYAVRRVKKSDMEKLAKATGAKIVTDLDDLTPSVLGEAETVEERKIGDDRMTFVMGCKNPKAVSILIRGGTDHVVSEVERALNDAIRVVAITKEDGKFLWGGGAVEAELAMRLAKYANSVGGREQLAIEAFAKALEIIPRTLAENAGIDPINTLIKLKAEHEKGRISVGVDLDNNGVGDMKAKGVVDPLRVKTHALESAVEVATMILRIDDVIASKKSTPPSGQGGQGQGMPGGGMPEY

B1: thermosome β subunit (natural protein, Thermoplasma acidophilum)
chain: MIAGQPIFILKEGTKRESGKDAMKENIEAAIAISNSVRSSLGPRGMDKMLVDSLGDIVITNDGVTILKEMDVEHPAAKMMVEVSKTQDSFVGDGTTTAVIIAGGLLQQAQGLINQNVHPTVISEGYRMASEEAKRVIDEISTKIGADEKALLLKMAQTSLNSKSASVAKDKLAEISYEAVKSVAELRDGKYYVDFDNIQVVKKQGGAIDDTQLINGIIVDKEKVHPGMPDVVKDAKIALLDAPLEIKKPEFDTNLRIEDPSMIQKFLAQEENMLREMVDKIKSVGANVVITQKGIDDMAQHYLSRAGIYAVRRVKKSDMDKLAKATGASIVSTIDEISSSDLGTAERVEQVKVGEDYMTFVTGCKNPKAVSILVRGETEHVVDEMERSITDSLHVVASALEDGAYAAGGGATAAEIAFRLRSYAQKIGGRQQLAIEKFADAIEEIPRALAENAGLDPIDILLKLRAEHAKGNKTYGINVFTGEIEDMVKNGVIEPIRVGKQAIESATEAAIMILRIDDVIATKSSSSSSNPPKSGSSSESSED
notes: thermosome β subunit, Thermoplasma acidophilum, P48425; untagged; Eight copies stand in the α8/β8 hexadecamer; also called un-tagged β-subunit; source: E. coli BL21(DE3) Codon Plus-RIL, co-expressed in tandem with the α subunit (αK144HTTherm or pETTherm α/β); in lysate, then purified with the complex

What was measured:
[1] = target: T2, (His)6-tagged α8/β8 thermosome (Ht thermosome, αK144Ht) (Thermoplasma acidophilum, UniProt P48424+P48425); test: coupled enzymatic steady-state ATPase assay; type: biochemical; details: 55 °C; tighter site of a two-site fit; read-out: KM1
T2 construct: gene thsA; full-length alpha with internal His6 inserted after Lys144, untagged beta; co-expressed in E. coli; α8/β8 hexadecamer, about 960 kDa

[2] = target: T1, thermosome α subunit with a (His)6-tag …; test: SEC; peak from the affinity column run on Superose 6 (or HiLoad 26/600 Superdex 200) in 25 mM TrisHCl, 150 mM NaCl, 5 mM EDTA pH 7.5, room temperature; single peak of about 960 kDa to 1 MDa (hexadecamer); SDS-PAGE of the peak; subunits co-expressed and co-purified; details: both partners purified

Row | Molecule | Km [1] [µM] | stoichiometry N [2]
1 | Nc1ncnc2c1ncn2[C@@H]1O[C@H](COP(=O)(O)OP(=O)(O)OP(=O)(O)O)[C@@H](O)[C@H]1O [ATP] | 15 | –
2 | B1 | – | 1 α:β ratio
